What was measured:
[1] = molecular target: Rho-associated protein kinase 2 (Homo sapiens) (UniProt O75116); experiment: Inhibition of human ROCK2 catalytic domain expressed in baculovirus assessed as substrate phosphorylation using fluorescence-labelled peptides as substrate at 420 uM after 90 mins by microfluidic peptide phosphorylation assay
Homo sapiens = species on record: Homo sapiens; experiment: Inhibition of human full length PKA expressed in baculovirus assessed as substrate phosphorylation using fluorescence-labelled peptides as substrate at 420 uM after 90 mins by microfluidic peptide phosphorylation assay
[2] = molecular target: T1, Serine/threonine-protein kinase DCLK2 (Homo sapiens) (UniProt Q8N568); experiment: Inhibition of human full length DCAMKL2 expressed in baculovirus assessed as substrate phosphorylation using fluorescence-labelled peptides as substrate at 9 uM after 90 mins by microfluidic peptide phosphorylation assay
T1 sequence (whole entry): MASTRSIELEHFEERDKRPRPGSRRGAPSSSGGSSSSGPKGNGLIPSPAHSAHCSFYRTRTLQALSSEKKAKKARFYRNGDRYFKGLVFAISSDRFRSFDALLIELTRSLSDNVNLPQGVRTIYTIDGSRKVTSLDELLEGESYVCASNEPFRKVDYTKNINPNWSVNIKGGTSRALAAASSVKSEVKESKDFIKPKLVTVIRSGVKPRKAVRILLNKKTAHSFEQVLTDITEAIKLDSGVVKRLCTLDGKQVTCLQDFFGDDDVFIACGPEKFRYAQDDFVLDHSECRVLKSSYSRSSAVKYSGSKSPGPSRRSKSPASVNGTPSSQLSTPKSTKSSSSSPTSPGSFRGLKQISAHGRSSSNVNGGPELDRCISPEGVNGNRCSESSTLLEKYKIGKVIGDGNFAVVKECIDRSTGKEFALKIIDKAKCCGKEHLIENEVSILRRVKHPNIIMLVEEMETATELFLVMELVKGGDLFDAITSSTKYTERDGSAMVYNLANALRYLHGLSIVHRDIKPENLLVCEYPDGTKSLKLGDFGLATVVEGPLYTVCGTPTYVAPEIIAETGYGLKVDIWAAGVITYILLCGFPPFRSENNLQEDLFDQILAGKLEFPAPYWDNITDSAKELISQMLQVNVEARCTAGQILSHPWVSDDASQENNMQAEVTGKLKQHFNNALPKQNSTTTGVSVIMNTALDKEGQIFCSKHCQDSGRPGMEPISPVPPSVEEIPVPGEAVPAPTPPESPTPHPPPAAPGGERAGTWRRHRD

[3] = molecular target: Serine/threonine-protein kinase MARK2 (Homo sapiens) (UniProt Q7KZI7); experiment: Inhibition of human full length MARK2 expressed in baculovirus assessed as substrate phosphorylation using fluorescence-labelled peptides as substrate at 9 uM after 90 mins by microfluidic peptide phosphorylation assay
Serine/threonine-protein kinase MARK2 (Homo sapiens), sequence (Q7KZI7 whole entry, the tested form may be a part, canonical isoform): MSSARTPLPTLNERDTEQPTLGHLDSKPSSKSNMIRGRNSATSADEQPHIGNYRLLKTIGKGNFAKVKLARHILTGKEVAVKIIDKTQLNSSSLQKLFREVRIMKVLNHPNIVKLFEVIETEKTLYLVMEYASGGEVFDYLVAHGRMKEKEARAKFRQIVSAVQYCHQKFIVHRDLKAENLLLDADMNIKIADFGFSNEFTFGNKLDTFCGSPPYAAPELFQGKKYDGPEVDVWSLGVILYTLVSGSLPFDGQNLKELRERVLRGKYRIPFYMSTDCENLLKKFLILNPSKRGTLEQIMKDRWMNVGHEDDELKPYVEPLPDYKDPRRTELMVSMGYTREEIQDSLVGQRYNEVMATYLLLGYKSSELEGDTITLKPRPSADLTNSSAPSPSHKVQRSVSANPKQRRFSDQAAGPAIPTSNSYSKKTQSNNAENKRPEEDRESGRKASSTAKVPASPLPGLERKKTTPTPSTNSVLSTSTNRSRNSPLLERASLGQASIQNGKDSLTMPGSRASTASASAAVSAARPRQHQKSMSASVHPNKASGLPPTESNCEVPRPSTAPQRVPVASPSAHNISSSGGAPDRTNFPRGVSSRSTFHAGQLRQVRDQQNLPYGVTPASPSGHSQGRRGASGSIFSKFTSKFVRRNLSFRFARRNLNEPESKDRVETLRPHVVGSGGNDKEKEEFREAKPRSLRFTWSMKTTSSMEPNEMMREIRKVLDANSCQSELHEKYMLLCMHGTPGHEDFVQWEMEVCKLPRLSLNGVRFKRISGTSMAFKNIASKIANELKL

[4] = molecular target: Casein kinase I isoform delta (Homo sapiens) (UniProt P48730); experiment: Inhibition of human CK1D catalytic domain expressed in Escherichia coli cell assessed as substrate phosphorylation using fluorescence-labelled peptides as substrate at 1000 uM after 90 mins by microfluidic peptide phosphorylation assay
Casein kinase I isoform delta (Homo sapiens), sequence (P48730 whole entry, looked up, the tested form may be a part, canonical isoform): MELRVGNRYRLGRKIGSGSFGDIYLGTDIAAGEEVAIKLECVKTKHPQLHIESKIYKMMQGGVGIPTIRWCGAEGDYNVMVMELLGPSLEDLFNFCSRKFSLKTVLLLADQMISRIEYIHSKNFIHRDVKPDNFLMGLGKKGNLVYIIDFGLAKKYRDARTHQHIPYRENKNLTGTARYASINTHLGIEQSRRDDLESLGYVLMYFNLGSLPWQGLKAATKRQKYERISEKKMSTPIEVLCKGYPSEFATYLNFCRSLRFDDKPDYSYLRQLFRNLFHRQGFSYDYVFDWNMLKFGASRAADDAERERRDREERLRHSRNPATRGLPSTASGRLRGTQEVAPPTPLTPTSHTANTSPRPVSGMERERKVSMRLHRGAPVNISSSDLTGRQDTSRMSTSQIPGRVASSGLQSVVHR

[5] = molecular target: Tyrosine-protein kinase ABL2 (Homo sapiens) (UniProt P42684); experiment: Inhibition of human truncated Arg expressed in baculovirus assessed as substrate phosphorylation using fluorescence-labelled peptides as substrate at 2 uM after 90 mins by microfluidic peptide phosphorylation assay
[6] = molecular target: T2, Serine/threonine-protein kinase Sgk3 (Homo sapiens) (UniProt Q96BR1); experiment: Inhibition of human full length SGK3 expressed in baculovirus assessed as substrate phosphorylation using fluorescence-labelled peptides as substrate at 8 uM after 90 mins by microfluidic peptide phosphorylation assay
T2 sequence (whole entry): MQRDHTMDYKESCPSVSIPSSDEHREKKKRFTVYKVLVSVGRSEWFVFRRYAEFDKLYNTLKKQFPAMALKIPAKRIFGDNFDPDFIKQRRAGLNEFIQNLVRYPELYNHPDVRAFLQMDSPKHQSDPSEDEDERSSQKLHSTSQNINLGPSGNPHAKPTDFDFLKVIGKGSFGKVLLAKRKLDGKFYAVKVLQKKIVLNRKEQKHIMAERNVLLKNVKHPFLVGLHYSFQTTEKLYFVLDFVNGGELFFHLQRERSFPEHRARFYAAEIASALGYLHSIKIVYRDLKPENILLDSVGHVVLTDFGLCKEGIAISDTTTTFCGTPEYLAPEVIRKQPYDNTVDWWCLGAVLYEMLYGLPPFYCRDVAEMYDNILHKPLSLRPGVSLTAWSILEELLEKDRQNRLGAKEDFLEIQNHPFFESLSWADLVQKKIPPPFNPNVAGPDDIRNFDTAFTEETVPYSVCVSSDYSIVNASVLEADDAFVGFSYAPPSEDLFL

[7] = molecular target: Serine/threonine-protein kinase MARK1 (Homo sapiens) (UniProt Q9P0L2); experiment: Inhibition of human full length MARK1 expressed in baculovirus assessed as substrate phosphorylation using fluorescence-labelled peptides as substrate at 8 uM after 90 mins by microfluidic peptide phosphorylation assay
Serine/threonine-protein kinase MARK1 (Homo sapiens), sequence (Q9P0L2 whole entry, looked up): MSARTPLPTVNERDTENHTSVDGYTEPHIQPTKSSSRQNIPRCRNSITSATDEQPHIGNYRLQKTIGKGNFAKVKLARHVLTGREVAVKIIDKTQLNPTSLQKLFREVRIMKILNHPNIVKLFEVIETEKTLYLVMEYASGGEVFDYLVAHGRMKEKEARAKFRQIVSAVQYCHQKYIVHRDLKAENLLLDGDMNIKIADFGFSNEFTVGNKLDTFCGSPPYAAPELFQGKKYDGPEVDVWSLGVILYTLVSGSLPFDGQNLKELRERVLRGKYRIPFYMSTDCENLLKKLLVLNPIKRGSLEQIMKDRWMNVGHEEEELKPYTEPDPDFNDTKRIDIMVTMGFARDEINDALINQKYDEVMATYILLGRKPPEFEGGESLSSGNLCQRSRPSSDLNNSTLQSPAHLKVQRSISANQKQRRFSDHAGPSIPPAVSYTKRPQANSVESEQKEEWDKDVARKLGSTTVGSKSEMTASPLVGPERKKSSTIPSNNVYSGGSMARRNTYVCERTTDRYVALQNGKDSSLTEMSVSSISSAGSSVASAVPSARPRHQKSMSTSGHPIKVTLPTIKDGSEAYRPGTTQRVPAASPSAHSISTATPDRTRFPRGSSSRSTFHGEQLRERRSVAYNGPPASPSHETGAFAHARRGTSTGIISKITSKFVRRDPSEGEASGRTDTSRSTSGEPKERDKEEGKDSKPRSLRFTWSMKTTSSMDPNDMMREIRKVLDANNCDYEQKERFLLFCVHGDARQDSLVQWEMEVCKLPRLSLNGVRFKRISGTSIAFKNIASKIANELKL

[8] = molecular target: Protein kinase C beta type (Homo sapiens) (UniProt P05771); experiment: Inhibition of human full length PKC beta2 expressed in baculovirus assessed as substrate phosphorylation using fluorescence-labelled peptides as substrate at 8 uM after 90 mins by microfluidic peptide phosphorylation assay
Protein kinase C beta type (Homo sapiens), sequence (P05771 2-671 limits assumed): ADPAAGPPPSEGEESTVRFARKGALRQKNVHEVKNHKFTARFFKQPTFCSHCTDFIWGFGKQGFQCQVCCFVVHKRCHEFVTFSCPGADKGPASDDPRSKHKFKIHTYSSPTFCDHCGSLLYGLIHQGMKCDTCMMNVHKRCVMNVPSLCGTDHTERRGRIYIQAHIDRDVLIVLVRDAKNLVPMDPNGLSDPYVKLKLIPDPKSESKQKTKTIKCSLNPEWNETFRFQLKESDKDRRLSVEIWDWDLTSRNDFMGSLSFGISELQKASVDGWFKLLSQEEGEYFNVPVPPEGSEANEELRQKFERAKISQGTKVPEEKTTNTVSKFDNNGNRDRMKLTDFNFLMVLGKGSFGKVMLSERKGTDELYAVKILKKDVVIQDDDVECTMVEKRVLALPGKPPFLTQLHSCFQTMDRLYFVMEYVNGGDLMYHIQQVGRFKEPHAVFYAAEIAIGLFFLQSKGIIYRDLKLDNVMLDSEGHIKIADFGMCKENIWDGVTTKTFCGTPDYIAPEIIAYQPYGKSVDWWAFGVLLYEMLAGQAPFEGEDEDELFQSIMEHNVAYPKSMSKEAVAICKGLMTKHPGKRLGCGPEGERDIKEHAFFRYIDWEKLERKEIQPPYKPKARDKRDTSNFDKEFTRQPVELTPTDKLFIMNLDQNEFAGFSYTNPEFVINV

[9] = molecular target: MAP/microtubule affinity-regulating kinase 3 (Homo sapiens) (UniProt P27448); experiment: Inhibition of human full length c-TAK1 expressed in Escherichia coli cell assessed as substrate phosphorylation using fluorescence-labelled peptides as substrate at 0.1 uM after 90 mins by microfluidic peptide phosphorylation assay
MAP/microtubule affinity-regulating kinase 3 (Homo sapiens), sequence (P27448 whole entry, looked up, the tested form may be a part): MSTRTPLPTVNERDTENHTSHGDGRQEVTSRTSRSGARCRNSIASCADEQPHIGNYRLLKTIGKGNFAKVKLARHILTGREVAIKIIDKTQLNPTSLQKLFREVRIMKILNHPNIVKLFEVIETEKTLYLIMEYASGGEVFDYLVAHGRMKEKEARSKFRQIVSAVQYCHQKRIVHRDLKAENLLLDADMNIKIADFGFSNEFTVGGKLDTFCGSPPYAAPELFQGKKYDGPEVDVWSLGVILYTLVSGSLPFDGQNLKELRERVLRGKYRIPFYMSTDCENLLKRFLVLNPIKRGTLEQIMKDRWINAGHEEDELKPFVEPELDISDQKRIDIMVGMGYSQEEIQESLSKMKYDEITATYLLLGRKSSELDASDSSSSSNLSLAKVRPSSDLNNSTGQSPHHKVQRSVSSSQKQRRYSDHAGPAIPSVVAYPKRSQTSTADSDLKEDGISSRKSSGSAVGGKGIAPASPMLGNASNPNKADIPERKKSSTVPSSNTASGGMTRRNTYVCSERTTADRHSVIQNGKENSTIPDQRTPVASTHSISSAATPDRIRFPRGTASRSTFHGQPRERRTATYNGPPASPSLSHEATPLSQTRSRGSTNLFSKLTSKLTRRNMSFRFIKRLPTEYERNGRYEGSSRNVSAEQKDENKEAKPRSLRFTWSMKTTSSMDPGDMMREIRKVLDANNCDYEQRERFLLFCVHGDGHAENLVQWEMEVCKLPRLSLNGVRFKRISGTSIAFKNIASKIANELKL

[10] = tested on: Tyrosine-protein kinase ABL1 (Homo sapiens), P00519 [H396P]; experiment: Inhibition of human truncated ABL H396P mutant expressed in baculovirus assessed as substrate phosphorylation using fluorescence-labelled peptides as substrate at 0.1 uM after 90 mins by microfluidic peptide phosphorylation assay

Rho-associated protein kinase 2 (Homo sapiens), sequence (O75116 whole entry, looked up, the tested form may be a part): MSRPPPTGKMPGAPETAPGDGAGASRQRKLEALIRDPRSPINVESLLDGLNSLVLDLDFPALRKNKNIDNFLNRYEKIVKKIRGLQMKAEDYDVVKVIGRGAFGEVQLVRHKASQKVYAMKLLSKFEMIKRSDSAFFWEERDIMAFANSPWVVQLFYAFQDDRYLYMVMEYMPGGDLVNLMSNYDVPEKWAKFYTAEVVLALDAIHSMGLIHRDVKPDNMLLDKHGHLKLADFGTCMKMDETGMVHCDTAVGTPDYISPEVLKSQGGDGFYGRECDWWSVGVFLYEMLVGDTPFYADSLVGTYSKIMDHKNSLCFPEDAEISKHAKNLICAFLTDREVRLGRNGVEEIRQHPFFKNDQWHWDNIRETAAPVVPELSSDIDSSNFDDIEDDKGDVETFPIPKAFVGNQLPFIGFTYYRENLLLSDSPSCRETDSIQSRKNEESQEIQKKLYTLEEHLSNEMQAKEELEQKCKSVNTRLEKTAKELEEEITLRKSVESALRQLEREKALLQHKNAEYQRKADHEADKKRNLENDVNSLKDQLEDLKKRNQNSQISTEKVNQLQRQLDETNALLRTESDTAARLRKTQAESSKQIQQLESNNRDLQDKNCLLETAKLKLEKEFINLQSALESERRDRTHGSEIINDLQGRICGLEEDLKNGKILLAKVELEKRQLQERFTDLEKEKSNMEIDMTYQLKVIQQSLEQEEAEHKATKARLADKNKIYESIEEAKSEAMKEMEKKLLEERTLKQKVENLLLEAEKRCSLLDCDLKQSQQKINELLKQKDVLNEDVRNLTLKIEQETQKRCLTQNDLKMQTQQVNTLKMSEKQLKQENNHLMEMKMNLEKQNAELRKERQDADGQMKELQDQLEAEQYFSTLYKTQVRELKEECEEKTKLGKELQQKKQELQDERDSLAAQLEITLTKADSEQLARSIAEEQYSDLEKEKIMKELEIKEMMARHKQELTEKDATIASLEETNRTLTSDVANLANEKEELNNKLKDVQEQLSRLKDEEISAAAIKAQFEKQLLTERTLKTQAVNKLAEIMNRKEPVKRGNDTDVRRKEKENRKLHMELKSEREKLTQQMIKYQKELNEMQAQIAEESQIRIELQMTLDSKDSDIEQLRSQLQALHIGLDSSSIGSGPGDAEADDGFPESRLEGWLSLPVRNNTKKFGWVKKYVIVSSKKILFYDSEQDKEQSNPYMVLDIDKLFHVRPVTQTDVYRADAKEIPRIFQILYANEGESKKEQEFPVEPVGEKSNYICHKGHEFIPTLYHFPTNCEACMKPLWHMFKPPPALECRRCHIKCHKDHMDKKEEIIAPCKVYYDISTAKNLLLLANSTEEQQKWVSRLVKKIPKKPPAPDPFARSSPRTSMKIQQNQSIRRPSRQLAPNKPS

c1nc(N2CCOCC2)c2nc[nH]c2n1
inhibition [1]: 101%
inhibition (Homo sapiens): 92.5%

NCC1CN(c2ncnc3[nH]c4cnccc4c23)CCO1 (stereo unspecified)
inhibition [2]: 3%
inhibition [3]: 73%

c1cnc2[nH]ccc2c1
inhibition [4]: 94.5%

NC1CCN(c2ncnc3[nH]ccc23)CC1
inhibition [5]: 7.5%

NCC1CCN(c2ncnc3[nH]ccc23)CC1
inhibition [6]: 83%
inhibition [7]: 74%
inhibition [8]: 88.5%

C[C@H](CN(C)C)Oc1nc(Nc2cc3cccc(Cl)c3cn2)cnc1C#N
inhibition [9]: 6%
inhibition [10]: 1.5%
